Several values for one entry are separate records, joined by “and”; a condition that tells them apart may be missing. Equal values may be shown once.
System: isolated Langendorff-perfused rat hearts
Assay: Langendorff-perfused rat hearts, haemodynamic parameters
Set-up: key to LVSP, individual hearts / LVEDP, individual hearts: pressure in mmHg; Max (Figure 5c): unit not given here
Settings: for Max (Figure 5c): one column per heart; for LVSP representative trace, ON: during perfusion with compound
Method: Next, we tested for the functional effects of F10 in isolated Langendorff-perfused rat hearts. Hearts were initially stabilized in modified Krebs-Henseleit (KH) solution for about 25–30 min and subsequently perfused with KH solution containing 20 μmol L^−1 F10 for 5 mins to reach a new steady state.
Rat hearts were Langendorff-perfused as described previously. Briefly, Wistar rats (Rattus norvegicus, male, 200–250 g, 7 weeks old) were anesthetized by injection of 0.9 mL sodium pentobarbitone 20% (w/v). […] The aorta was cannulated and secured with sutures (Mersilk 3‐0; Ethicon, Somerville, NJ, USA). Hearts were perfused at a constant perfusion pressure of 70 ± 2 mmHg using a peristaltic pump (Gilson Minipuls 4, Middleton, WI, USA) and a feedback control system (STH Pump Controller; AD Instruments, Oxford, UK). […] A fluid‐filled balloon, attached to a pressure transducer, was inserted into the left ventricle and inflated to give an end‐diastolic pressure between 3 and 8 mmHg. Left ventricular pressure (LVP), perfusion pressure, coronary flow and arterial and venous oxygen tensions were recorded using a PowerLab recorder and LabChart 8.0 software (ADInstruments). Functional parameters were averaged for ∼80 cardiac cycles at 5 min intervals.

[1] = 20 μmol L^−1 F10 or 1 μmol L^−1 Mavacamten
[2] = Time 11 min, during perfusion with 20 μmol L^−1 F10 or 1 μmol L^-1 Mavacamten
[3] = Time 12 min, during perfusion with 20 μmol L^−1 F10 or 1 μmol L^-1 Mavacamten
[4] = Time 13 min, during perfusion with 20 μmol L^−1 F10 or 1 μmol L^-1 Mavacamten
[5] = Time 14 min, during perfusion with 20 μmol L^−1 F10 or 1 μmol L^-1 Mavacamten
[6] = Time 15 min, during perfusion with 20 μmol L^−1 F10 or 1 μmol L^-1 Mavacamten

CC(C)n1c(=O)cc(N[C@@H](C)c2ccccc2)[nH]c1=O [Mavacamten]
effect on coronary perfusion / coronary flow [1]: without affecting | effect on heart rate [1]: without affecting | effect on left ventricular end-diastolic pressure (LVEDP) [1]: did not affect | Max (Figure 5c) (Time 0 min): 3876.58 and 5238.56 and 5331.08 and 5274.63 | Max (Figure 5c) (Time 1 min): 3763.48 and 5575.44 and 5372.46 and 4664.37 | Max (Figure 5c) (Time 2 min): 3604.67 and 5570.63 and 5457.56 and 4849.22 | Max (Figure 5c) (Time 3 min): 3616.7 and 5958.05 and 5555.1 and 4920.12 | Max (Figure 5c) (Time 4 min): 3720.17 and 5852.17 and 5485.6 and 4634 | Max (Figure 5c) (Time 5 min): 3611.89 and 6003.77 and 5528.57 and 4575.4 | Max (Figure 5c) (Time 6 min): 3669.64 and 6398.4 and 5572.15 and 4575.4 | Max (Figure 5c) (Time 7 min): 3638.35 and 5690.95 and 5454.91 and 4575.4 | Max (Figure 5c) (Time 8 min): 3568.57 and 5926.76 and 5613.04 and 4575.4 | Max (Figure 5c) (Time 9 min): 3638.35 and 6073.55 and 6702.43 and 4575.4 | Max (Figure 5c) (Time 10 min): 3558.95 and 6376.75 and 5920.41 and 4694.75 | LVEDP, individual hearts [2]: 1 mmHg (2×) and 2 mmHg (2×) and 3 mmHg | LVSP, individual hearts [2]: 91 and 157 and 150 and 205 and 152 | Max (Figure 5c) (Time 11 min): 3462.69 and 5852.17 and 5171.55 and 4904.93 | LVEDP, individual hearts [3]: 0 and 1 (2×) and 2 and 3 | LVSP, individual hearts [3]: 71 and 113 and 134 and 163 and 147 | Max (Figure 5c) (Time 12 min): 2779.3 and 4057.05 and 4519.31 and 4773.25 | LVEDP, individual hearts [4]: 0 and 1 (2×) and 3 and 5 | LVSP, individual hearts [4]: 60 and 95 and 115 and 137 and 135 | Max (Figure 5c) (Time 13 min): 2415.94 and 3070.46 and 3716.1 and 3709.72 | LVEDP, individual hearts [5]: 0 and 1 (2×) and 2 and 5 | LVSP, individual hearts [5]: 51 and 81 and 104 and 115 and 105 | Max (Figure 5c) (Time 14 min): 2076.65 and 2695.08 and 3441.74 and 3481.82 | LVEDP, individual hearts [6]: 0 and 1 (2×) and 2 and 7 | LVSP, individual hearts [6]: 45 and 71 and 97 and 99 and 100 | Max (Figure 5c) (Time 15 min): 1876.93 and 2447.23 and 3260.21 and 3233.66 | LVEDP, individual hearts (Time 16 min, after washout): 0 and 1 (2×) and 3 and 5 | LVSP, individual hearts (Time 16 min, after washout): 44 and 65 and 100 and 90 and 98 | LVEDP, individual hearts (Time 17 min, after washout): 0 and 1 (2×) and 3 and 2 | LVSP, individual hearts (Time 17 min, after washout): 49 and 71 and 103 and 101 and 98 | LVEDP, individual hearts (Time 18 min, after washout): 1 mmHg (4×) and 3 mmHg | LVSP, individual hearts (Time 18 min, after washout): 52 and 78 and 106 and 103 and 96 | LVEDP, individual hearts (Time 19 min, after washout): 1 mmHg (4×) and 2 mmHg | LVSP, individual hearts (Time 19 min, after washout): 55 and 83 and 109 (2×) and 98 | LVEDP, individual hearts (Time 20 min, after washout): 1 mmHg (3×) and 2 mmHg (2×) | LVSP, individual hearts (Time 20 min, after washout): 58 and 87 and 114 (2×) and 98 | Max (Figure 5c) (Time 20 min): 2218.63 and 2954.96 and 3682.2 and 4327.58 | LVEDP, individual hearts (Time 21 min, after washout): 1 mmHg (3×) and 2 mmHg (2×) | LVSP, individual hearts (Time 21 min, after washout): 60 and 101 (2×) and 118 (2×) | Max (Figure 5c) (Time 21 min): 2317.29 and 3027.15 and 3768.27 and 4469.39 | LVEDP, individual hearts (Time 22 min, after washout): 1 mmHg (4×) and 0 mmHg | LVSP, individual hearts (Time 22 min, after washout): 63 and 96 and 122 and 121 and 125 | Max (Figure 5c) (Time 22 min): 2358.19 and 3503.6 and 3945.22 and 4568.14 | LVEDP, individual hearts (Time 23 min, after washout): 1 mmHg (2×) and 0 mmHg and 2 mmHg and 3 mmHg | LVSP, individual hearts (Time 23 min, after washout): 66 and 99 and 125 and 126 and 103 | Max (Figure 5c) (Time 23 min): 2526.64 and 3729.79 and 4137.98 and 4461.79 | LVEDP, individual hearts (Time 24 min, after washout): 1 mmHg (4×) and 0 mmHg | LVSP, individual hearts (Time 24 min, after washout): 67 and 106 and 126 and 130 and 104 | Max (Figure 5c) (Time 24 min): 2654.17 and 3905.46 and 4295.47 and 4963.17 | LVEDP, individual hearts (Time 25 min, after washout): 1 and 0 (2×) and 3 and 2 | LVSP, individual hearts (Time 25 min, after washout): 67 and 105 and 127 and 133 and 110 | Max (Figure 5c) (Time 25 min): 2752.83 and 3729.79 and 4394.02 and 5097.38 | LVSP representative trace, OFF (after washout, t 0 s): 97.9459 mmHg | LVSP representative trace, OFF (after washout, t 10 s): 98.66 mmHg | LVSP representative trace, OFF (after washout, t 20 s): 99.4941 mmHg | LVSP representative trace, OFF (after washout, t 30 s): 99.8652 mmHg | LVSP representative trace, OFF (after washout, t 40 s): 99.9074 mmHg | LVSP representative trace, OFF (after washout, t 50 s): 100.799 mmHg | LVSP representative trace, OFF (after washout, t 60 s): 101.94 mmHg | LVSP representative trace, OFF (after washout, t 70 s): 102.076 mmHg | LVSP representative trace, OFF (after washout, t 80 s): 102.473 mmHg | LVSP representative trace, OFF (after washout, t 90 s): 103.301 mmHg | LVSP representative trace, OFF (after washout, t 100 s): 104.178 mmHg | LVSP representative trace, OFF (after washout, t 110 s): 104.015 mmHg | LVSP representative trace, OFF (after washout, t 120 s): 104.172 mmHg | LVSP representative trace, OFF (after washout, t 130 s): 104.333 mmHg | LVSP representative trace, OFF (after washout, t 140 s): 104.863 mmHg | LVSP representative trace, OFF (after washout, t 150 s): 105.62 mmHg | LVSP representative trace, OFF (after washout, t 160 s): 106.146 mmHg | LVSP representative trace, OFF (after washout, t 170 s): 107.035 mmHg | LVSP representative trace, OFF (after washout, t 180 s): 107.188 mmHg | LVSP representative trace, OFF (after washout, t 190 s): 108.073 mmHg | LVSP representative trace, OFF (after washout, t 200 s): 108.759 mmHg | LVSP representative trace, OFF (after washout, t 210 s): 109.171 mmHg | LVSP representative trace, OFF (after washout, t 220 s): 109.899 mmHg | LVSP representative trace, OFF (after washout, t 230 s): 110.383 mmHg | LVSP representative trace, OFF (after washout, t 240 s): 111.699 mmHg | LVSP representative trace, OFF (after washout, t 250 s): 111.591 mmHg | LVSP representative trace, OFF (after washout, t 260 s): 112.354 mmHg | LVSP representative trace, OFF (after washout, t 270 s): 113.909 mmHg | LVSP representative trace, OFF (after washout, t 280 s): 115.189 mmHg | LVSP representative trace, OFF (after washout, t 290 s): 115.643 mmHg | LVSP representative trace, OFF (after washout, t 300 s): 115.694 mmHg | LVSP representative trace, OFF (after washout, t 310 s): 117.014 mmHg | LVSP representative trace, OFF (after washout, t 320 s): 117.329 mmHg | LVSP representative trace, OFF (after washout, t 330 s): 117.56 mmHg | LVSP representative trace, OFF (after washout, t 340 s): 118.377 mmHg | LVSP representative trace, OFF (after washout, t 350 s): 118.795 mmHg | LVSP representative trace, OFF (after washout, t 360 s): 118.884 mmHg | LVSP representative trace, OFF (after washout, t 370 s): 120.043 mmHg | LVSP representative trace, OFF (after washout, t 380 s): 121.007 mmHg | LVSP representative trace, OFF (after washout, t 390 s): 121.543 mmHg | LVSP representative trace, OFF (after washout, t 400 s): 122.385 mmHg | LVSP representative trace, ON (t 0 s): 185.674 mmHg | LVSP representative trace, ON (t 10 s): 179.044 mmHg | LVSP representative trace, ON (t 20 s): 172.645 mmHg | LVSP representative trace, ON (t 30 s): 172.645 mmHg | LVSP representative trace, ON (t 40 s): 172.645 mmHg | LVSP representative trace, ON (t 50 s): 163.036 mmHg | LVSP representative trace, ON (t 60 s): 160.436 mmHg | LVSP representative trace, ON (t 70 s): 155.482 mmHg | LVSP representative trace, ON (t 80 s): 149.519 mmHg | LVSP representative trace, ON (t 90 s): 144.889 mmHg | LVSP representative trace, ON (t 100 s): 139.74 mmHg | LVSP representative trace, ON (t 110 s): 137.111 mmHg | LVSP representative trace, ON (t 120 s): 131.856 mmHg | LVSP representative trace, ON (t 130 s): 128.177 mmHg | LVSP representative trace, ON (t 140 s): 123.963 mmHg | LVSP representative trace, ON (t 150 s): 121.031 mmHg | LVSP representative trace, ON (t 160 s): 117.5 mmHg | LVSP representative trace, ON (t 170 s): 114.951 mmHg | LVSP representative trace, ON (t 180 s): 110.93 mmHg | LVSP representative trace, ON (t 190 s): 108.804 mmHg | LVSP representative trace, ON (t 200 s): 106.216 mmHg | LVSP representative trace, ON (t 210 s): 103.076 mmHg | LVSP representative trace, ON (t 220 s): 101.63 mmHg | LVSP representative trace, ON (t 230 s): 99.0368 mmHg | LVSP representative trace, ON (t 240 s): 96.0294 mmHg | LVSP representative trace, ON (t 250 s): 94.9632 mmHg | LVSP representative trace, ON (t 260 s): 93.4811 mmHg | LVSP representative trace, ON (t 270 s): 90.0331 mmHg | LVSP representative trace, ON (t 280 s): 88.9689 mmHg
